From the NIST ThermoML archive (doi:10.1021/acs.jced.6b00888)
Numbers after ± are expanded uncertainties.

Test: wn = mass fraction of the nth substance listed
Settings: 101.3 kPa, Liquid, Vibrating tube method

CN(C)CCO [2-(N,N-dimethylamino)ethanol] + O
mass density [kg/m3]
Settings | w1 = 0.1 | w1 = 0.2 | w1 = 0.3 | w1 = 0.49 | w1 = 0.64 | w1 = 0.69 | w1 = 0.79 | w1 = 0.9 | w1 = 1
293.15 K | 994.8 ± 5.2 | 992.8 ± 5.2 | 990.8 ± 5.3 | 981.7 ± 5.5 | 963 ± 5.8 | 955.3 ± 6.4 | 935.1 ± 6.7 | 911.3 ± 7.2 | 882.2 ± 5.2
298.15 K | 993.3 ± 5.2 | 990.8 ± 5.2 | 988.1 ± 5.3 | 978 ± 5.5 | 959 ± 5.8 | 951.3 ± 6.5 | 931.1 ± 6.7 | 906.9 ± 6.9 | 884 ± 5.2
303.15 K | 991.6 ± 5.3 | 988.6 ± 5.3 | 985.2 ± 5.3 | 974.2 ± 5.5 | 954.9 ± 5.9 | 947.2 ± 6.5 | 926.9 ± 6.8 | 902.2 ± 6.9 | 879.8 ± 5.2
308.15 K | 989.7 ± 5.3 | 986.2 ± 5.3 | 982.2 ± 5.3 | 970.4 ± 5.5 | 950.8 ± 5.9 | 943 ± 6.5 | 922.7 ± 6.8 | 897.9 ± 6.9 | 875.5 ± 5.2
313.15 K | 987.6 ± 5.3 | 983.6 ± 5.3 | 979.1 ± 5.4 | 966.5 ± 5.5 | 946.6 ± 5.9 | 938.8 ± 6.5 | 918.5 ± 6.8 | 893.5 ± 6.9 | 871.2 ± 5.2
318.15 K | 985.3 ± 5.3 | 980.9 ± 5.3 | 975.8 ± 5.4 | 962.6 ± 5.6 | 942.4 ± 5.9 | 934.5 ± 6.5 | 914.2 ± 6.8 | 889.1 ± 6.9 | 866.8 ± 5.2
323.15 K | 982.9 ± 5.3 | 978.4 ± 5.3 | 972.5 ± 5.4 | 958.6 ± 5.6 | 938 ± 5.9 | 930.1 ± 6.5 | 909.8 ± 6.8 | 884 ± 6.9 | 862.4 ± 5.2
328.15 K | 980.3 ± 5.3 | 975.1 ± 5.3 | 969.1 ± 5.4 | 954.5 ± 5.6 | 933.7 ± 5.9 | 925.7 ± 6.5 | 905.4 ± 6.8 | 879.3 ± 6.9 | 858 ± 5.2
333.15 K | 977.6 ± 5.3 | 972 ± 5.4 | 965.5 ± 5.4 | 950.3 ± 5.6 | 929.2 ± 6 | 921.2 ± 6.5 | 900.9 ± 6.8 | 874.8 ± 6.9 | 853.5 ± 5.2
338.15 K | 974.7 ± 5.4 | 968.8 ± 5.4 | 961.9 ± 5.5 | 946.1 ± 5.6 | 924.7 ± 6 | 916.7 ± 6.5 | 896.4 ± 6.8 | 870.4 ± 6.9 | 849 ± 5.2
343.15 K | 971.7 ± 5.4 | 965.5 ± 5.5 | 958.2 ± 5.5 | 941.8 ± 5.7 | 920.2 ± 6 | 912.1 ± 6.5 | 891.8 ± 6.8 | 865.8 ± 6.9 | 844.4 ± 5.2
